Structures can show the parent of a compound that is named as a salt.
How the values were obtained:
[1] = target: T1, MASP-2 (CCP1-CCP2-SP) (Homo sapiens, UniProt O00187); test: Enzymatic assay for MASP-2 inhibitory activity (fluorogenic substrate); type: biochemical
T1 construct: 15 μL of Enzyme MASP-2 (CCP1-CCP2-SP) in Assay Buffer
Summary of the method: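 MASP-2 (CCP1-CCP2-SP) cleaved a fluorogenic substrate based on the C2 cleavage site in 20 mM HEPES pH 7.4, 140 mM NaCl, 0.1% Tween 20 at room temperature. After 20 min the reaction was stopped with 0.1 M acetic acid and fluorescence read. % activity was normalized to DMSO-only and no-enzyme controls; IC50 taken as Ki.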

[2] = target: T2, human α-thrombin (Homo sapiens, UniProt P00734); test: Enzymatic assay for thrombin (fluorogenic peptide substrate Boc-VPR-AMC); type: biochemical
T2 construct: enzyme (human α-thrombin (BioPharm® Lab.)) in assay buffer; purchased BioPharm® Lab
Summary of the method: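 Human α-thrombin was run with the fluorogenic substrate Boc-VPR-AMC in 20 mM Hepes pH 7.4, 140 mM NaCl, 0.1% Tween 20 at room temperature for 20 min, then stopped with 0.1 M acetic acid. % activity was normalized to DMSO and no-enzyme controls. Under linear conditions IC50 equalled Ki, except for tight-binding inhibitors.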

T1 sequence (O00187 445-686 limits assumed): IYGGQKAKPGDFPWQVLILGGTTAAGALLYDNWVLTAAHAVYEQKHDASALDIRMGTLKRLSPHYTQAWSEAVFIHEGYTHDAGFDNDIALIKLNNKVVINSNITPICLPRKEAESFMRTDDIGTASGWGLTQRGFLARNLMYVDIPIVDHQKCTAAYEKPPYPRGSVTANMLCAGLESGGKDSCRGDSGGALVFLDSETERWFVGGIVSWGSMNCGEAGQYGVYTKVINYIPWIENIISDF
T1 sequence (O00187 287-444 partner limits assumed): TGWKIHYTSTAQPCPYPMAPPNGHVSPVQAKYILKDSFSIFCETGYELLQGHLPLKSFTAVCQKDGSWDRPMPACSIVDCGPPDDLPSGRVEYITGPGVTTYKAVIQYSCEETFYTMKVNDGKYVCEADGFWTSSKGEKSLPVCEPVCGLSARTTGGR

Cc1nc(N)ccc1CNC(=O)[C@@H]1CCc2cnc(NCc3cccc(C(C)(C)O)c3)c(=O)n21 [Compound 66, (S)-N-((6-amino-2-methylpyridin-3-yl)methyl)-3-((3-(2-hydroxypropan-2-yl)benzyl)amino)-4-oxo-4,6,7,8-tetrahydropyrrolo[1,2-a]pyrazine-6-carboxamide]
Ki [1]: < 500 nM | Ki [2]: < 500 nM

Nc1ccc2c(n1)CC[C@H]2NC(=O)[C@@H]1CCc2cnc(NCc3cccc(-c4ccccc4)c3)c(=O)n21 [Compound 236]
Ki [1]: < 500 nM | Ki [2]: 500 to 2500 nM

Cc1cc(F)cc(CNc2nc(C3CC3)c3n(c2=O)[C@H](C(=O)NCc2ccc(N)nc2C)CC3)c1 [Compound 210, (S)—N-((6-amino-2-methylpyridin-3-yl)methyl)-1-cyclopropyl-3-((3-fluoro-5-methylbenzyl)amino)-4-oxo-4,6,7,8-tetrahydropyrrolo[1,2-a]pyrazine-6-carboxamide trifluoroacetate]
Ki [1]: < 500 nM | Ki [2]: 500 to 2500 nM

CC[C@@H](Nc1ncc2n(c1=O)[C@H](C(=O)NCc1cc3c(s1)CNC3)CC2)c1ccccc1 [Compound 234]
Ki [1]: < 500 nM | Ki [2]: < 500 nM

O=C(NCc1cc2cnccc2[nH]1)[C@@H]1CCc2c(Cl)nc(NCc3ccccc3)c(=O)n21 [Compound 105, (S)—N-((1H-pyrrolo[3,2-c]pyridin-2-yl)methyl)-3-(benzylamino)-1-chloro-4-oxo-4,6,7,8-tetrahydropyrrolo[1,2-a]pyrazine-6-carboxamide]
Ki [1]: < 500 nM | Ki [2]: 10000 to 25000 nM

CC(C)(O)c1cccc(CNc2ncc3n(c2=O)[C@H](C(=O)NCc2cc4cnccc4[nH]2)CC3)c1 [Compound 67, (S)-N-((1H-pyrrolo[3,2-c]pyridin-2-yl)methyl)-3-((3-(2-hydroxypropan-2-yl)benzyl)amino)-4-oxo-4,6,7,8-tetrahydropyrrolo[1,2-a]pyrazine-6-carboxamide]
Ki [1]: < 500 nM | Ki [2]: 500 to 2500 nM

O=C(NCc1cc2c(s1)CNC2)[C@@H]1CCc2cnc(N[C@@H](c3ccccc3)C3CCC3)c(=O)n21 [Compound 256]
Ki [1]: < 500 nM | Ki [2]: < 500 nM

Cc1cc(C)cc([C@@H](CO)Nc2ncc3n(c2=O)[C@H](C(=O)NCc2ccc(N)nc2C)CC3)c1 [Compound 76, (S)-N-((6-amino-2-methylpyridin-3-yl)methyl)-3-(((S)-1-(3,5-dimethylphenyl)-2-hydroxyethyl)amino)-4-oxo-4,6,7,8-tetrahydropyrrolo[1,2-a]pyrazine-6-carboxamide]
Ki [1]: < 500 nM | Ki [2]: < 500 nM

CCc1cccc(CNc2nc(Cl)c3n(c2=O)[C@H](C(=O)NCc2cc4cnccc4[nH]2)CC3)c1 [Compound 3, (S)-N-((1H-pyrrolo[3,2-c]pyridin-2-yl)methyl)-1-chloro-3-((3-ethylbenzyl)amino)-4-oxo-4,6,7,8-tetrahydropyrrolo[1,2-a]pyrazine-6-carboxamide]
Ki [1]: < 500 nM | Ki [2]: 2500 to 10000 nM

Cc1cc(C)cc(CNc2ncc3n(c2=O)[C@H](C(=O)NCc2ccc(CN)nc2)CC3)c1 [Compound 109, (S)-N-((6-(aminomethyl)pyridin-3-yl)methyl)-3-((3,5-dimethylbenzyl)amino)-4-oxo-4,6,7,8-tetrahydropyrrolo[1,2-a]pyrazine-6-carboxamide trifluoroacetate]
Ki [1]: < 500 nM | Ki [2]: 2500 to 10000 nM

Cc1cccc(CNc2ncc3n(c2=O)[C@H](C(=O)NCc2cc4cnccc4[nH]2)CC3)c1 [Compound 115, (S)-N-((1H-pyrrolo[3,2-c]pyridin-2-yl)methyl)-3-((3-methylbenzyl)amino)-4-oxo-4,6,7,8-tetrahydropyrrolo[1,2-a]pyrazine-6-carboxamide trifluoroacetate]
Ki [1]: < 500 nM | Ki [2]: 500 to 2500 nM

Cc1ccccc1[C@@H](C)Nc1ncc2n(c1=O)[C@H](C(=O)NCc1cc3cnccc3[nH]1)CC2 [Compound 81, (S)-N-((1H-pyrrolo[3,2-c]pyridin-2-yl)methyl)-4-oxo-3-(((R)-1-(0-tolyl)ethyl)amino)-4,6,7,8-tetrahydropyrrolo[1,2-a]pyrazine-6-carboxamide]
Ki [1]: < 500 nM | Ki [2]: < 500 nM

COc1cc(C)cc(CNc2nc(Cl)c3n(c2=O)[C@H](C(=O)NCc2cc4cnccc4[nH]2)CC3)c1 [Compound 7, (S)-N-((1H-pyrrolo[3,2-c]pyridin-2-yl)methyl)-1-chloro-3-((3-methoxy-5-methylbenzyl)amino)-4-oxo-4,6,7,8-tetrahydropyrrolo[1,2-a]pyrazine-6-carboxamide]
Ki [1]: < 500 nM | Ki [2]: 2500 to 10000 nM

C[C@H](NC(=O)[C@@H]1CCc2cnc(N[C@@H](c3ccccc3)C(C)(C)C)c(=O)n21)c1cc2c(s1)CNC2 [Compound 270, (S)-N-((S)-1-(5,6-dihydro-4H-thieno[2,3-c]pyrrol-2-yl)ethyl)-3-(((R)-2,2-dimethyl-1-phenylpropyl)amino)-4-oxo-4,6,7,8-tetrahydropyrrolo[1,2-a]pyrazine-6-carboxamide trifluoroacetate]
Ki [1]: 2500 to 10000 nM | Ki [2]: 10000 to 25000 nM

Cc1nc(N)ccc1CNC(=O)[C@@H]1CCc2c(Cl)nc(NCc3ccc(Cl)cc3)c(=O)n21 [Compound 30, trifluoroacetate]
Ki [1]: < 500 nM | Ki [2]: 2500 to 10000 nM

Cc1cccc(CNc2ncc3n(c2=O)[C@H](C(=O)NCc2ccc(N)nc2C)CC3)c1F [Compound 62, (S)-N-((6-amino-2-methylpyridin-3-yl)methyl)-3-((2-fluoro-3-methylbenzyl)amino)-4-oxo-4,6,7,8-tetrahydropyrrolo[1,2-a]pyrazine-6-carboxamide]
Ki [1]: < 500 nM | Ki [2]: < 500 nM

CCc1cccc(CNc2ncc3n(c2=O)[C@H](C(=O)N[C@H](C)c2ccc(N)nc2)CC3)c1 [Compound 195, (S)-N-((R)-1-(6-aminopyridin-3-yl)ethyl)-3-((3-ethylbenzyl)amino)-4-oxo-4,6,7,8-tetrahydropyrrolo[1,2-a]pyrazine-6-carboxamide trifluoroacetate]
Ki [1]: < 500 nM | Ki [2]: 2500 to 10000 nM

CC[C@H]1C[C@@H](C(=O)NCc2cc3cnccc3[nH]2)n2c1c(Cl)nc(NCc1ccccc1)c2=O [Compound 159, (6S,8S)—N-((1H-pyrrolo[3,2-c]pyridin-2-yl)methyl)-3-(benzylamino)-1-chloro-8-ethyl-4-oxo-4,6,7,8-tetrahydropyrrolo[1,2-a]pyrazine-6-carboxamide]
Ki [1]: < 500 nM | Ki [2]: 10000 to 25000 nM

COc1cc(C)cc(CNc2ncc3n(c2=O)[C@H](C(=O)NCc2ccc(N)nc2C)CC3)c1 [Compound 49, (S)-N-((6-amino-2-methylpyridin-3-yl)methyl)-3-((3-methoxy-5-methylbenzyl)amino)-4-oxo-4,6,7,8-tetrahydropyrrolo[1,2-a]pyrazine-6-carboxamide]
Ki [1]: < 500 nM | Ki [2]: < 500 nM

Cc1cc(F)cc(CNc2nc(C#N)c3n(c2=O)[C@H](C(=O)NCc2ccc(N)nc2C)CC3)c1 [Compound 222, (S)—N-((6-amino-2-methylpyridin-3-yl)methyl)-1-cyano-3-((3-fluoro-5-methylbenzyl)amino)-4-oxo-4,6,7,8-tetrahydropyrrolo[1,2-a]pyrazine-6-carboxamide trifluoroacetate]
Ki [1]: < 500 nM | Ki [2]: 2500 to 10000 nM

Cc1cc(C)cc([C@@H](CO)Nc2ncc3n(c2=O)[C@H](C(=O)NCc2cc4c(s2)CNC4)CC3)c1 [Compound 92, (S)-N-((5,6-dihydro-4H-thieno[2,3-c]pyrrol-2-yl)methyl)-3-(((S)-1-(3,5-dimethylphenyl)-2-hydroxyethyl)amino)-4-oxo-4,6,7,8-tetrahydropyrrolo[1,2-a]pyrazine-6-carboxamide]
Ki [1]: < 500 nM | Ki [2]: < 500 nM

Source: patent publication US20250122225A1, “MASP-2 INHIBITORS AND METHODS OF USE” (Omeros Corporation, priority 2023, published 2025)
